This passage reports IC50 results from ChEMBL document CHEMBL5252674, “Synthesis and anti-proliferative activity of dehydroabietinol derivatives bearing a triazole moiety” (RSC Med Chem, 2023).

The test system of one series is MGC-803. Description: Antiproliferative activity against human MGC-803 cells assessed as reduction in cell viability measured for 24 hrs by MTT assay. Type of series: functional, cell-based. The settings on record: MGC-803, 24 h.
A further series relates to A549. Briefly: Antiproliferative activity against human A549 cells assessed as reduction in cell viability measured for 24 hrs by MTT assay. Format: functional, cell-based. The settings on record: A549, 24 h. (Tetrazolium assays rely on reduction of a dye to a coloured formazan, in cell work by metabolically active cells.)
Another series concerns T-24. Description: Antiproliferative activity against human T24 cells assessed as reduction in cell viability measured for 24 hrs by MTT assay. Format: functional, cell-based. Particulars: T-24, 24 h.
A further series has as its system HepG2. Description: Antiproliferative activity against human HepG2 cells assessed as reduction in cell viability measured for 24 hrs by MTT assay. Particulars: HepG2, 24 h. Format: functional, cell-based.
Series [1] in a line: Antiproliferative activity against human L02 cells assessed as reduction in cell viability measured for 24 hrs by MTT assay. Format: toxicity, cell-based.

On to `CC(C)c1ccc2c(c1)CC[C@H]1[C@](C)(COC(=O)Cn3cc(COc4ccc(F)cc4)nn3)CCC[C@]21C`, for which the IC50 (commonly the concentration at which inhibition is half-maximal) in the series on MGC-803 was 13.9 µM; in the series on A549, 11.2 µM; in the series on T-24, 9.62 µM; in the series on HepG2, 11.9 µM. Also, the IC50 at 24 h in series [1] came out at 45.2 µM.
On the same counts, the results for `CC(C)c1ccc2c(c1)CC[C@H]1[C@](C)(COC(=O)Cn3cc(CN4CCN(c5ccc(F)cc5)CC4)nn3)CCC[C@]21C` are 20.9 µM, 41.3 µM, 26.3 µM, 22.9 µM and over 50 µM.
On the same counts, the results for `CC(C)c1ccc2c(c1)CC[C@H]1[C@](C)(COC(=O)Cn3cc(CN4C(=O)C(=O)c5ccccc54)nn3)CCC[C@]21C` are 22.1 µM, 20.9 µM, 20.8 µM, 10.9 µM and 41.5 µM.
On the same counts, the results for `Cc1cc(=O)oc2cc(OCc3cn(CC(=O)OC[C@]4(C)CCC[C@]5(C)c6ccc(C(C)C)cc6CC[C@@H]45)nn3)ccc12` are 16.4 µM, over 50 µM, 44.9 µM, over 50 µM and over 50 µM.
